# Laboratory results published in article PMC3488302 (MedChemComm, 2012).
# *1 amine or outer side, *2 acyl side, *3 side chain or, on linkers, in order; H or OH if unused. Where a SMILES comes first, the peptide text is derived from it. [ ]: non-standard residue; d: D form. The star is where a group is joined. NMeAbu(4-morpholino) = CN[C@@H](CCN1CCOCC1)C(=O)O; X1 = CN([C@@H](CCN1CCCCC1)C(=O)[*:2])[*:1]; NMeW = CN[C@@H](Cc1c[nH]c2ccccc12)C(=O)O; NMeY = CN[C@@H](Cc1ccc(O)cc1)C(=O)O; NMeCha = CN[C@@H](CC1CCCCC1)C(=O)O; NMeLys(Me) = CNCCCC[C@H](NC)C(=O)O; NMeF = CN[C@@H](Cc1ccccc1)C(=O)O; NMeI = CC[C@H](C)[C@H](NC)C(=O)O; NMeT = CN[C@H](C(=O)O)[C@@H](C)O; NMeD = CN[C@@H](CC(=O)O)C(=O)O; dNMeL = CN[C@H](CC(C)C)C(=O)O; NMeK = CN[C@@H](CCCCN)C(=O)O; NMeS = CN[C@@H](CO)C(=O)O; Morpholide = C1CN(*)CCO1; NMeA = CN[C@@H](C)C(=O)O; Piperidide = C1CCN(*)CC1
# Legend:
# [1] = tested on: RRCK (Ralph Russ canine kidney cell line); assay: RRCK permeability; conditions: MDCK
# [2] = RRCK permeability; conditions: MDCK; for Papp A→B: dog
# [3] = rat intestinal S-9 fraction and rat brush border membrane vesicles
# [4] = rat; cited from earlier work
# [5] = tested on: Caco-2; conditions: cited from earlier work
Compound,log Papp(RRCK) [1],recovery [2],also measured
CC(C)C[C@@H]1NC(=O)[C@H](Cc2ccc(O)cc2)N(C)C(=O)[C@H]2CCCN2C(=O)[C@H](CC(C)C)NC(=O)[C@H](CO)N(C)C(=O)[C@@H](CC(C)C)N(C)C1=O [Compound 2] (cyclo(L[dNMeL][NMeS]L[dP][NMeY])),−5.81,84.3%,stability towards oxidative or proteolytic degradation [3]: stable
CC(C)C[C@@H]1NC(=O)[C@H](Cc2ccc(O)cc2)N(C)C(=O)[C@H]2CCCN2C(=O)[C@H](CC(C)C)NC(=O)[C@H]([C@@H](C)O)N(C)C(=O)[C@@H](CC(C)C)N(C)C1=O [Compound 3] (cyclo(L[dNMeL][NMeT]L[dP][NMeY])),−5.33,–,–
CC[C@H](C)[C@H]1C(=O)N[C@@H](CC(C)C)C(=O)N2CCC[C@@H]2C(=O)N(C)[C@@H](Cc2ccc(O)cc2)C(=O)N[C@@H](CC(C)C)C(=O)N(C)[C@H](CC(C)C)C(=O)N1C [Compound 4] (cyclo(L[dNMeL][NMeI]L[dP][NMeY])),–,39.7%,–
CC(C)C[C@@H]1NC(=O)[C@H](Cc2ccc(O)cc2)N(C)C(=O)[C@H]2CCCN2C(=O)[C@H](CC(C)C)NC(=O)[C@H](C)N(C)C(=O)[C@@H](CC(C)C)N(C)C1=O [Compound 5] (cyclo(L[dNMeL][NMeA]L[dP][NMeY])),−5.26,47.1%,–
CC(C)C[C@@H]1NC(=O)[C@H](Cc2ccc(O)cc2)N(C)C(=O)[C@H]2CCCN2C(=O)[C@H](CC(C)C)NC(=O)[C@H](Cc2ccc(O)cc2)N(C)C(=O)[C@@H](CC(C)C)N(C)C1=O [Compound 6] (cyclo(L[dNMeL][NMeY]L[dP][NMeY])),−5.88,72.6%,–
CC(C)C[C@@H]1NC(=O)[C@H](Cc2ccc(O)cc2)N(C)C(=O)[C@H]2CCCN2C(=O)[C@H](CC(C)C)NC(=O)[C@H](Cc2ccccc2)N(C)C(=O)[C@@H](CC(C)C)N(C)C1=O [Compound 7] (cyclo(L[dNMeL][NMeF]L[dP][NMeY])),−5.24,59.8%,–
CC(C)C[C@@H]1NC(=O)[C@H](Cc2ccc(O)cc2)N(C)C(=O)[C@H]2CCCN2C(=O)[C@H](CC(C)C)NC(=O)[C@H](Cc2c[nH]c3ccccc23)N(C)C(=O)[C@@H](CC(C)C)N(C)C1=O [Compound 8] (cyclo(L[dNMeL][NMeW]L[dP][NMeY])),−6.66,37.1%,–
CC(C)C[C@@H]1NC(=O)[C@H](Cc2ccc(O)cc2)N(C)C(=O)[C@H]2CCCN2C(=O)[C@H](CC(C)C)NC(=O)[C@H](CC(=O)O)N(C)C(=O)[C@@H](CC(C)C)N(C)C1=O [Compound 9] (cyclo(L[dNMeL][NMeD]L[dP][NMeY])),–,74.8%,Papp A→B [2]: 0.457 ×10⁻⁶ cm/s
CC(C)C[C@@H]1NC(=O)[C@H](Cc2ccc(O)cc2)N(C)C(=O)[C@H]2CCCN2C(=O)[C@H](CC(C)C)NC(=O)[C@H](CCCCN)N(C)C(=O)[C@@H](CC(C)C)N(C)C1=O [Compound 10] (cyclo(L[dNMeL][NMeK]L[dP][NMeY])),−6.56,56.5%,–
CNCCCC[C@H]1C(=O)N[C@@H](CC(C)C)C(=O)N2CCC[C@@H]2C(=O)N(C)[C@@H](Cc2ccc(O)cc2)C(=O)N[C@@H](CC(C)C)C(=O)N(C)[C@H](CC(C)C)C(=O)N1C [Compound 11] (cyclo(L[dNMeL][NMeLys(Me)]L[dP][NMeY])),–,59.7%,Papp A→B [2]: 0.234 ×10⁻⁶ cm/s
CC(C)C[C@@H]1NC(=O)[C@H](Cc2ccc(O)cc2)N(C)C(=O)[C@H]2CCCN2C(=O)[C@H](CC(C)C)NC(=O)[C@H](CC2CCCCC2)N(C)C(=O)[C@@H](CC(C)C)N(C)C1=O [Compound 12] (cyclo(L[dNMeL][NMeCha]L[dP][NMeY])),−6.74,12.2%,–
CC(C)C[C@@H]1NC(=O)[C@H](Cc2ccc(O)cc2)N(C)C(=O)[C@H]2CCCN2C(=O)[C@H](CC(C)C)NC(=O)[C@H](CCN2CCCCC2)N(C)C(=O)[C@@H](CC(C)C)N(C)C1=O [Compound 13] (cyclo(L[dNMeL][X1]L[dP][NMeY])),−6.15,47.9%,–
CC(C)C[C@@H]1NC(=O)[C@H](Cc2ccc(O)cc2)N(C)C(=O)[C@H]2CCCN2C(=O)[C@H](CC(C)C)NC(=O)[C@H](CC(=O)N2CCCCC2)N(C)C(=O)[C@@H](CC(C)C)N(C)C1=O [Compound 14] (cyclo(L[dNMeL][NMeD](Piperidide)L[dP][NMeY])),−5.84,45.6%,–
CC(C)C[C@@H]1NC(=O)[C@H](Cc2ccc(O)cc2)N(C)C(=O)[C@H]2CCCN2C(=O)[C@H](CC(C)C)NC(=O)[C@H](CCN2CCOCC2)N(C)C(=O)[C@@H](CC(C)C)N(C)C1=O [Compound 15] (cyclo(L[dNMeL][NMeAbu(4-morpholino)]L[dP][NMeY])),−5.92,48.7%,–
CC(C)C[C@@H]1NC(=O)[C@H](Cc2ccc(O)cc2)N(C)C(=O)[C@H]2CCCN2C(=O)[C@H](CC(C)C)NC(=O)[C@H](CC(=O)N2CCOCC2)N(C)C(=O)[C@@H](CC(C)C)N(C)C1=O [Compound 16] (cyclo(L[dNMeL][NMeD](Morpholide)L[dP][NMeY])),−6.20,47.9%,–
cyclo-[LPro-LPhe-DTrp(NMe)-LLys(NMe)-LThr-LPhe(NMe)] [Kessler peptide],–,–,oral bioavailability [4]: 10%; Caco-2 permeability [5]: good
